Measured values as given in patent US20120329761A1, “USE OF TIGECYCLINE FOR TREATMENT OF CANCER” (UNIVERSITY HEALTH NETWORK, priority 2010, published 2012).

Key:
Format in all cases: cell-based, human
[1] = system: TEX cells; assay: Chemical library screen, MTS assay; settings: 10 μM, 72 hours
From the text: (§1) To identify compounds active against leukemia stem cells, a library of drugs (n=312) with well-characterized pharmacokinetics and toxicology and a wide therapeutic window was compiled. This library was then screened to identify agents that reduced the viability of TEX and M9-ENL1 cells. TEX and M9-ENL1 cells were derived from lineage-depleted human cord blood cells (Lin-CB) transduced with TLS-ERG or MLL-ENL oncogenes, respectively, and, as shown previously, display properties of stem cells including hierarchal differentiation and marrow repopulation^14,16. In this screen, TEX and M9-ENL1 cells were treated with aliquots of the compounds. After incubation, cell growth and viability was measured by the MTS assay. From this screen, tigecycline was identified.
(§2) TEX, and M9-ENL-1 cells were seeded into 96-well polystyrene tissue culture plates (Corning). […] 72 (TEX) and 48 (M9-ENL-1) hours after incubation, cell growth and viability was measured by MTS assay. […]
(§3) Cell growth and viability was assessed by the MTS assay (Promega, Madison, Wis.) according to the manufacturer's instructions. Apoptosis and cell death was measured by Annexin V-fluoroscein isothiocyanate (FITC; Biovision Research Products, Mountain View, Calif.), propidium iodide staining and flow cytometry according to the manufacturer's instructions and as previously described^30. […]

[2] = system: M9-ENL1 cells; assay: Chemical library screen, MTS assay; settings: 10 μM, 48 hours
From the text: as §1, §2, §3

[3] = system: TEX cells; assay: Apoptosis by Annexin V flow cytometry; settings: over time
Method: FIG. 1. […] (A) TEX and (B) M9-ENL1 cells were plated in 96-well plates and drugs were added to the wells (5 μL per well) for final concentrations of 10 μM (shown) and 1 μM. Cell growth and viability was measured at 48 hours (M9-ENL-1) and 72 hours (TEX) by MTS assay. Cell viability is shown for each compound as a percent of cells treated with DMSO alone. (C) Leukemia, (D) myeloma, and (E) solid tumor cell lines were seeded in 96-well plates and then treated with increasing concentrations of tigecycline. Cell growth and viability was measured at 72 hours by MTS assay. Cell viability is expressed as mean percentage plus or minus SD (n=3) relative to vehicle-treated cells. […] Cell viability was measured at 72 hours by MTS assay. Cell viability is expressed as mean percentage plus or minus SD (n=3) relative to vehicle-treated cells.
(§4) Cell growth and viability was assessed by the MTS assay (Promega, Madison, Wis.) according to the manufacturer's instructions. Apoptosis and cell death was measured by Annexin V-fluoroscein isothiocyanate (FITC; Biovision Research Products, Mountain View, Calif.), propidium iodide staining and flow cytometry according to the manufacturer's instructions and as previously described^30.

[4] = system: primary AML patient samples; assay: Cell death by Annexin V staining, 48 hours
Method: (§5) FIG. 2. Tigecycline induces cell death and inhibits clonogenic growth in primary AML cells preferential over normal hematopoietic cells. Mononuclear cells from peripheral blood of leukemia patients (blast count >80%) and normal G-CSF expanded donors was treated with increasing concentrations of tigecycline for 48 hours. Cell viability was measured by Annexin-PI flow cytometry staining. Cell viability is expressed as a mean percentage plus or minus SD (n=3) relative to DMSO-treated cells. Mononuclear cells from primary AML patient samples (A, B) and normal peripheral blood cells (C) were plated in methylcelluose with 5 μM of Tigecycline. (D) Colony forming units were counted at 7 days (AML) and 14 days (Normal) post plating. Percent colony formation is represented compared to DMSO-treated plated cells.
(§6) Primary human acute myeloid leukemia (AML) samples were isolated from fresh peripheral blood samples of consenting patients with AML. Similarly, primary normal hematopoietic cells were obtained from healthy consenting volunteers donating peripheral blood […] (PBSC) for stem cell transplantation. The mononuclear cells were isolated from the samples by Ficoll density centrifugation. Primary cells were cultured at 37° C. in IMDM supplemented with 20% FCS, 1 mM of L-glutamine and appropriate antibiotics. […]
as §4
(§7) Given the cytotoxicity of tigecycline towards leukemia cell lines, the ability of tigecycline to induce cell death in primary acute myeloid leukemia (AML) patient samples and normal hematopoietic cells was compared and evaluated. […] After incubation, cell viability was measured by Annexin V staining.

[5] = system: primary normal hematopoietic cells (PBSC); assay: Cell death by Annexin V staining, 48 hours; settings: normal PBSC from G-CSF mobilized donors, n=5, 48 hours
Method: as §5, §6, §4, §7

Structure (SMILES): CN(C)c1cc(NC(=O)CNC(C)(C)C)c(O)c2c1C[C@H]1C[C@H]3[C@H](N(C)C)C(O)=C(C(N)=O)C(=O)[C@@]3(O)C(O)=C1C2=O [tigecycline]
- screen result, cell growth and viability [1]: identified
- screen result, cell growth and viability [2]: identified
- apoptosis, percentage of cells labeled by Annexin V [3]: time-dependent increases in apoptosis
- LD50 ([4]; more resistant group of patients, n=7, 48 hours): > 9 µM
- LD50 ([4]; sensitive subset of leukemia patients, n=13, 48 hours): 5 µM
- LD50 [5]: > 10 µM
